# Measured values as given in publication PMC8991199, “Promiscuity mapping of the S100 protein family using a high-throughput holdup assay” (Scientific Reports, 2022).
# Experiments:
# S100A6 = S100A6 (Homo sapiens, UniProt P06703); assay: direct fluorescence polarization (FP), S100A6; type: binding
# From the text: HTP (and also low-throughput) measurements generally need to be validated by an orthogonal approach to eliminate experimental artifacts. […] In this assay, the association of the fluorescently labeled foldamer and the S100 protein of interest is monitored, through the change in polarization of the emitted light by the fluorophore upon the binding event. In direct FP, the presence of the fluorophore might change the binding affinity of some foldamers. […] Nevertheless, we assumed that the fluorophore would affect all foldamers that target the same binding site to the same degree, because the foldamer scaffold is rigid.
# Briefly, S100 proteins were cloned into a modified pET15b vector with a TEV protease cleavable N-terminal His6-tag and expressed in Escherichia coli BL21 (DE3) cells, followed by Ni^2+-affinity chromatography. For HU assay, S100 proteins were further purified by either hydrophobic interaction chromatography or ion exchange chromatography without the cleavage of the N-terminal His6-tag applying standard conditions. For direct FP measurements, the N-terminal His6-tag was cleaved, and the S100 proteins were purified by hydrophobic interaction chromatography, ion exchange chromatography or size exclusion chromatography. The quality of the recombinant proteins was checked by SDS-PAGE analysis in all cases. The concentration of the recombinant S100 proteins was determined by UV spectrophotometry using the absorbance of Tyr and Trp residues.
# In direct fluorescence polarization assays, S100 proteins were diluted in a buffer containing 50 nM labeled foldamer, 20 mM HEPES pH 7.5, 150 mM NaCl, 1 mM CaCl2, 0.5 mM TCEP and 0.01% Tween20. The dilution series (50 µl) were divided into three technical repeats and transferred (15 µl) to a 384-well microplate. In competitive fluorescence polarization assays, the buffer applied in direct measurements was supplemented with the S100 protein of interest to reach a saturation of 60–80%. This mixture was titrated with the competitor (i.e. the unlabeled peptide). Fluorescence polarization was measured in 8 different S100 concentrations (one of which contained no S100 protein) on a Synergy H4 plate reader using 485 ± 20 nm and 528 ± 20 nm band-pass filters for excitation and emission, respectively. The Kd values were obtained by fitting the data from the FP measurements with the python-based ProFit software using quadratic and competitive binding equation for direct and competitive FP, respectively. The detection threshold was based on two parameters. First, we rejected all fitted dissociation constants above 1 mM.
# [1] = solubility by light scattering; settings: 20 mM HEPES, 150 mM NaCl, 2 mM CaCl2, pH 7.5, 10 nM to 1 mM, triplicates
Kd (S100A6) [µM],Structure (SMILES),"concentration above which light scattering is increased ([1]; Fig. S2, absorbance at 650 nm)",concentration at which aggregation was observed ([1]; light scattering on 600 nm (text; method: absorbance at 650 nm)) [µM]
699 ± 63,CC[C@H](C)[C@@H](CC(=O)N[C@H]1CCCC[C@@H]1C(=O)NCC(=O)N[C@@H](CCCCNC(=O)c1ccc2c(c1)C1(OC2=O)c2ccc(O)cc2Oc2cc(O)ccc21)C(N)=O)NC(=O)[C@H]1CCCC[C@@H]1NC(=O)[C@H]1CCCC[C@@H]1NC(=O)C[C@@H](NC(=O)[C@H]1CCCC[C@@H]1N)[C@@H](C)O [fTI],–,–
517 ± 57,CSCC[C@@H](CC(=O)N[C@H]1CCCC[C@@H]1C(=O)NCC(=O)N[C@@H](CCCCNC(=O)c1ccc2c(c1)C1(OC2=O)c2ccc(O)cc2Oc2cc(O)ccc21)C(N)=O)NC(=O)[C@H]1CCCC[C@@H]1NC(=O)[C@H]1CCCC[C@@H]1NC(=O)C[C@@H](NC(=O)[C@H]1CCCC[C@@H]1N)[C@@H](C)O [fTM],–,–

# Continued, compound first:
Structure (SMILES),Kd (S100A6) [µM],"concentration above which light scattering is increased ([1]; Fig. S2, absorbance at 650 nm)",concentration at which aggregation was observed ([1]; light scattering on 600 nm (text; method: absorbance at 650 nm)) [µM]
CC(C)C[C@@H](CC(=O)N[C@H]1CCCC[C@@H]1C(=O)NCC(=O)N[C@@H](CCCCNC(=O)c1ccc2c(c1)C1(OC2=O)c2ccc(O)cc2Oc2cc(O)ccc21)C(N)=O)NC(=O)[C@H]1CCCC[C@@H]1NC(=O)[C@H]1CCCC[C@@H]1NC(=O)C[C@H](Cc1c[nH]c2ccccc12)NC(=O)[C@H]1CCCC[C@@H]1N [fWL],30 ± 1.7,–,–
NC(=O)[C@H](CCCCNC(=O)c1ccc2c(c1)C1(OC2=O)c2ccc(O)cc2Oc2cc(O)ccc21)NC(=O)CNC(=O)[C@H]1CCCC[C@@H]1NC(=O)C[C@H](Cc1c[nH]c2ccccc12)NC(=O)[C@H]1CCCC[C@@H]1NC(=O)[C@H]1CCCC[C@@H]1NC(=O)C[C@H](Cc1c[nH]c2ccccc12)NC(=O)[C@H]1CCCC[C@@H]1N [fWW],100 ± 3.2,above 1 μM,10
N=C(N)NCCC[C@@H](CC(=O)N[C@H]1CCCC[C@@H]1C(=O)NCC(=O)N[C@@H](CCCCNC(=O)c1ccc2c(c1)C1(OC2=O)c2ccc(O)cc2Oc2cc(O)ccc21)C(N)=O)NC(=O)[C@H]1CCCC[C@@H]1NC(=O)[C@H]1CCCC[C@@H]1NC(=O)C[C@H](CCCNC(=N)N)NC(=O)[C@H]1CCCC[C@@H]1N [fRR],> 1000,–,–
